What all share (assay type): biochemical
Assay [1] has as its target T1, DBAT of T. wallichiana var. (Taxus mairei, UniProt B5KRG1).
T1 sequence (B5KRG1 1-440): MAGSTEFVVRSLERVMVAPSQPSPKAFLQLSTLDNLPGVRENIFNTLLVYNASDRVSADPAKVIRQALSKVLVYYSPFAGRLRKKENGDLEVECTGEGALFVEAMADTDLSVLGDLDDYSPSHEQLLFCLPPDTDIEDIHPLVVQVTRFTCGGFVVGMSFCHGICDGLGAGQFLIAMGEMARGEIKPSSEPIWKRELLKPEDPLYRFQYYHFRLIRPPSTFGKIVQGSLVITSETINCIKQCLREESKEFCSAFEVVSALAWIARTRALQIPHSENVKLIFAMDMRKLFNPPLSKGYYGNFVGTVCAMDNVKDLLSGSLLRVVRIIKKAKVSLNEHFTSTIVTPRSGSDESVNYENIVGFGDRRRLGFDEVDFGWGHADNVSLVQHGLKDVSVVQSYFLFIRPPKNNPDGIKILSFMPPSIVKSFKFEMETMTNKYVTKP
Put plainly: HPLC of baccatin III formed. To be noted: 500 μM acetyl-CoA, 50 mM sodium acetate pH 5.5, 40 °C, 20 min.

Assay [2] has as its target T2, DBAT of T. canadensis (Taxus canadensis, UniProt B5KRF5).
T2 sequence (B5KRF5 1-440): T1 sequence (B5KRG1 1-440) with V9L, H123L, M158V, S228F, S294L, V352I, V422M
Nature of the assay: HPLC of baccatin III formed. To be noted: 500 μM acetyl-CoA, 50 mM sodium acetate pH 5.5, 40 °C, 20 min.

For assay [3], the target named is T3, DBAT of T. x media (Taxus x media, UniProt Q6SQJ5).
T3 sequence (Q6SQJ5 1-440): T1 sequence (B5KRG1 1-440) with A58V, H123L, M158V, R213Q, R216C, V352I
Nature of the assay: HPLC of baccatin III formed. The settings on record: 500 μM acetyl-CoA, 50 mM sodium acetate pH 5.5, 40 °C, 20 min.

The target in assay [4] is T2, DBAT of T. canadensis. Nature of the assay: HPLC of Taxol formed. The settings on record: 500 μM acetyl-CoA, 50 mM sodium acetate pH 5.5, […], 180 min.
The target in another assay is T4, DBAT of T. brevifolia (Taxus brevifolia, UniProt B5KRG4).
T4 sequence (B5KRG4 1-440): T1 sequence (B5KRG1 1-440) with A52T, H123L, M158V, R216H, S219T, V352M, L383I, S415L, M417L
Nature of the assay: HPLC of Taxol formed. The settings on record: 500 μM acetyl-CoA, 50 mM sodium acetate pH 5.5, […], 180 min.

The target in assay [5] is T3, DBAT of T. x media. Put plainly: HPLC of Taxol formed. To be noted: 500 μM acetyl-CoA, 50 mM sodium acetate pH 5.5, […], 180 min.
The target of assay [6] is T1, DBAT of T. wallichiana var. Nature of the assay: HPLC of Taxol formed. The settings on record: 500 μM acetyl-CoA, 50 mM sodium acetate pH 5.5, […], 180 min.

Each structure is given as a SMILES string. Where a chain is given by its changes, count along the chain named.

Regarding `CC(=O)O[C@@]12CO[C@@H]1C[C@H](O)[C@@]1(C)C(=O)[C@H](O)C3=C(C)[C@@H](O)C[C@@](O)([C@@H](OC(=O)c4ccccc4)[C@H]21)C3(C)C` [compound 1, 10-DAB], the “HPLC of baccatin III formed” value in assay [1] was “all other recombinant enzymes exhibited acetylation activity against 10-DAB and DT”; on DBAT of T. canadensis [2] it was “all other recombinant enzymes exhibited acetylation activity against 10-DAB and DT”; on DBAT of T. x media [3], “T. x media origins showed similar conversion rates for 10-DAB”.

With `CC(=O)O[C@@]12CO[C@@H]1C[C@H](O)[C@@]1(C)C(=O)[C@H](O)C3=C(C)[C@@H](OC(=O)[C@H](O)[C@@H](NC(=O)c4ccccc4)c4ccccc4)C[C@@](O)([C@@H](OC(=O)c4ccccc4)[C@H]21)C3(C)C` [compound 2, DT], the “HPLC of Taxol formed” value on DBAT of T. canadensis [4] was “all other recombinant enzymes exhibited acetylation activity against 10-DAB and DT”; at DBAT of T. brevifolia, “the DBATs of T. cuspidata and T. brevifolia showed the highest specific activities”; at DBAT of T. x media [5], “all other recombinant enzymes exhibited acetylation activity against 10-DAB and DT”; in assay [6] it was “all other recombinant enzymes exhibited acetylation activity against 10-DAB and DT”.
